Like-named read-outs stand apart in the source and are kept apart here.
What was measured:
Alpha2Beta2 = target: T1, Alpha2Beta2 (Rattus norvegicus, UniProt P12389+P12390); assay: PDSP primary binding Alpha2Beta2; conditions: primary binding, 10,000 nM; last figure of the line = mean of the 4 before it; read-out: Alpha2Beta2, PDSP raw data, mean
T1 construct: purchased NIMH Psychoactive Drug Screening Program (PDSP)
Experimental: (§1) To determine if any off-target receptor-binding effects are present, all the novel ligands were sent to the National Institute of Mental Health (NIMH), Psychoactive Drug Screening Program (PDSP). The ligands were screened over a panel of 47 receptors, ion channels, and transporters to determine any other possible interactions with […]. The hERG-binding was also determined. […] No binding of the test compounds to calcium channels was observed. […] It is necessary to screen the compounds for hERG-binding during the early process of drug discovery. The unintentional binding of many drugs to hERG can cause blockade of hERG K+ channels in the heart, which can cause many side effects including cardiac arrhythmias and sudden death. […] All of the α5 imidazodiazepines were tested for hERG-binding.
(§2) The NIMH PDSP assay protocol book [https://kidbdev.med.unc.edu/databases/PDSP%20Protocols%20II%202013-03-28.pdf accessed on 23 April 2023]. describes the protocols for primary and secondary radio-ligand binding assays. These assays were carried out in a final volume of 125 µL per well in the appropriate binding buffer.
(§3) The binding of a ligand to a receptor, ion channel, or transporter was determined in the […] of 10 µM of the appropriate reference compound. […] Plates were incubated in the dark for 90 min at rt, and the reactions were stopped by vacuum filtration onto 0.3% polyethyleneimine (PEI) soaked 96-well filter mats using a 96-well Filtermateharvester. This was followed by three washes with cold PBS buffer. Radioactivity was then counted on a Microbeta counter. Nonlinear regression was used to analyze the data with N = 6 replicates.

NTS1 = target: T2, NTS1 (Homo sapiens, UniProt P30989); assay: PDSP primary binding NTS1; conditions: primary binding, 10,000 nM; last figure of the line = mean of the 4 before it; read-out: NTS1, PDSP raw data, mean
T2 construct: purchased NIMH Psychoactive Drug Screening Program (PDSP)
Experimental: as §1, §2, §3

5-HT1B = target: T3, 5-HT1B (Homo sapiens, UniProt P28222); assay: PDSP primary binding 5-HT1B; conditions: 1.5 h; primary binding, 10,000 nM; last figure of the line = mean of the 4 before it; read-out: 5-HT1B, PDSP raw data, mean
T3 construct: purchased NIMH Psychoactive Drug Screening Program (PDSP)
T3 sequence (P28222 whole entry): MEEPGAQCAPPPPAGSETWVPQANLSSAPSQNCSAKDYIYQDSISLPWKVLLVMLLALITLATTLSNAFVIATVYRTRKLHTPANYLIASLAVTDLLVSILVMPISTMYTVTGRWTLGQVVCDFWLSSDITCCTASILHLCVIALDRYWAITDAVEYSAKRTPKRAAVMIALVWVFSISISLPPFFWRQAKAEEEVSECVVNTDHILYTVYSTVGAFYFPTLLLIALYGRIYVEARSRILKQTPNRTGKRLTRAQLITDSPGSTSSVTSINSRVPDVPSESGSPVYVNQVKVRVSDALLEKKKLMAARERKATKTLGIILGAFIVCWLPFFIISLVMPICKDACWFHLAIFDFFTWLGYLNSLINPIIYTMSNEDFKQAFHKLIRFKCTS
Experimental: as §1, §2, §3

hERG channels = target: T4, hERG channels (Homo sapiens, UniProt Q12809); assay: PDSP radioligand binding at hERG; conditions: primary binding, 10,000 nM; last figure of the line = mean of the 4 before it
T4 construct: purchased NIMH Psychoactive Drug Screening Program (PDSP)
T4 sequence (Q12809 whole entry): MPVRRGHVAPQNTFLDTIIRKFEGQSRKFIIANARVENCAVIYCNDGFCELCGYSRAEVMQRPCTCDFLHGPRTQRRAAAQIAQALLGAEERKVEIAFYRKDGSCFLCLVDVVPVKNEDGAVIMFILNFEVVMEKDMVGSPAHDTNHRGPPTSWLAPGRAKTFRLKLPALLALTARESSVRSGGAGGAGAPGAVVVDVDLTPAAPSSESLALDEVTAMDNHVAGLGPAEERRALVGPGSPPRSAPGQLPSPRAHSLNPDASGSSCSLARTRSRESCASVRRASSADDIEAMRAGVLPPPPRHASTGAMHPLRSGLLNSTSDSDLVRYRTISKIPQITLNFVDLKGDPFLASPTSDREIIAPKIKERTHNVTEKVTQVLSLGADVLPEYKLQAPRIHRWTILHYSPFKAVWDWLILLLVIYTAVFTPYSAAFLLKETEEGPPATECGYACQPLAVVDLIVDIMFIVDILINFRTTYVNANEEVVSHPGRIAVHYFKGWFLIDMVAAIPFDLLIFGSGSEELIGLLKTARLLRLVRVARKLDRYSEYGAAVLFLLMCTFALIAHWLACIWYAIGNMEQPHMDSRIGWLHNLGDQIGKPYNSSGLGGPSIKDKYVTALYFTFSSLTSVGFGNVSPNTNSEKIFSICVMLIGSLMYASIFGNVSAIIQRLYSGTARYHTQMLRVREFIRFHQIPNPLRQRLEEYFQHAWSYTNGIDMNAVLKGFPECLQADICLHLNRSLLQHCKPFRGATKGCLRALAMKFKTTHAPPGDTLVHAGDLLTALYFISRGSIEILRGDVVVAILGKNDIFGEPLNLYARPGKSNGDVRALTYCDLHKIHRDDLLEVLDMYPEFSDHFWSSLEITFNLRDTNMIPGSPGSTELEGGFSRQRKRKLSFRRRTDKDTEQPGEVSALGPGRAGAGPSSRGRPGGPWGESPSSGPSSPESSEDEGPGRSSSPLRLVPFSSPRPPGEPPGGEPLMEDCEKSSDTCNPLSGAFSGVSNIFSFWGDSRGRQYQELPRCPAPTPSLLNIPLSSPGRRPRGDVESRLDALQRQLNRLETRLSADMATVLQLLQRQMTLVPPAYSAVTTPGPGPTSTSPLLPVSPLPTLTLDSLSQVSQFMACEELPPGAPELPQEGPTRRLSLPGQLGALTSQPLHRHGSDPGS
Experimental: as §1, §2, §3

D2 = target: T5, D2 (Homo sapiens, UniProt P14416); assay: PDSP primary binding D2; conditions: 1.5 h; primary binding, 10,000 nM; last figure of the line = mean of the 4 before it; read-out: D2, PDSP raw data, mean
T5 construct: purchased NIMH Psychoactive Drug Screening Program (PDSP)
T5 sequence (P14416 whole entry): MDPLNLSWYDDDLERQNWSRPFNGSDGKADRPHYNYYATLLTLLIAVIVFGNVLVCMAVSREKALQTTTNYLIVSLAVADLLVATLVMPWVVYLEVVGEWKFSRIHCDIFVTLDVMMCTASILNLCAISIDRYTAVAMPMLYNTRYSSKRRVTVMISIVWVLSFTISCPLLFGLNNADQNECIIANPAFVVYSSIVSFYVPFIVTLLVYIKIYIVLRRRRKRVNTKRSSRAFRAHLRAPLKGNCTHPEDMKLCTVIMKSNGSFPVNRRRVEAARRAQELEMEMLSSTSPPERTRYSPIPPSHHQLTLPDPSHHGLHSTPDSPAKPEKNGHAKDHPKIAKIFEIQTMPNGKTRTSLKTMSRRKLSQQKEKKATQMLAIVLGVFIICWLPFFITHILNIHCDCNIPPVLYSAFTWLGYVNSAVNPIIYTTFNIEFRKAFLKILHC
Experimental: as §1, §2, §3

H2 = target: T6, H2 (Homo sapiens, UniProt P25021); assay: PDSP primary binding H2; conditions: primary binding, 10,000 nM; last figure of the line = mean of the 4 before it; read-out: H2, PDSP raw data, mean
T6 construct: purchased NIMH Psychoactive Drug Screening Program (PDSP)
T6 sequence (P25021 whole entry): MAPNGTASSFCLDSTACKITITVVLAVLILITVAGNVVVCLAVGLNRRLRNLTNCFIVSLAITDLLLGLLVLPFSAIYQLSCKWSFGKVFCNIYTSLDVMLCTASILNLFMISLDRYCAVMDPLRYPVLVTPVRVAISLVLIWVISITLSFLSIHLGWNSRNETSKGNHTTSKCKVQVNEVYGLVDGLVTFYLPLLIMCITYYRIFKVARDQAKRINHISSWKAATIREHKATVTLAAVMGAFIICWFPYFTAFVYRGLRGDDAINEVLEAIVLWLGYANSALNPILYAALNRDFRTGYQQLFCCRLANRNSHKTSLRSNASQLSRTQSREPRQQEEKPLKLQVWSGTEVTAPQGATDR
Experimental: as §1, §2, §3

5-HT5A = target: T7, 5-HT5A (Homo sapiens, UniProt P47898); assay: PDSP primary binding 5-HT5A; conditions: 1.5 h; primary binding, 10,000 nM; last figure of the line = mean of the 4 before it; read-out: 5-HT5A, PDSP raw data, mean
T7 construct: purchased NIMH Psychoactive Drug Screening Program (PDSP)
Experimental: as §1, §2, §3

[1] = target: peripheral benzodiazepine receptors (PBR) (Rattus norvegicus, UniProt P16257); assay: PDSP radioligand binding at PBR
Sequence of peripheral benzodiazepine receptors (PBR) (P16257 whole entry): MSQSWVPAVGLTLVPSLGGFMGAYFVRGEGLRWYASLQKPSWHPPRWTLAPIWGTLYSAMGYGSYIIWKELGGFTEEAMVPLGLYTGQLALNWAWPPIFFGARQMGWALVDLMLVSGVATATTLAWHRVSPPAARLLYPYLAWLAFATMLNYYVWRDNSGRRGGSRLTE
Source text: The compounds were also screened at PDSP to determine any binding with peripheral benzodiazepine receptors (PBR). A number of biological processes are associated with PBR. The most prevalent are transportation of anions for mitochondrial transmembrane potential, biosynthesis of heme, regulation of neurological damage, proliferation, cell death (apoptosis), as well as regulation of steroidogenesis. The test compounds were screened in the primary binding assay to determine the % inhibition at PBR. […] These compounds were then subjected to a secondary screening to determine the Ki (nM) value for PBR receptors.
as §2, §3

M2 = target: T8, M2 (Homo sapiens, UniProt P08172); assay: PDSP primary binding M2; conditions: primary binding, 10,000 nM; last figure of the line = mean of the 4 before it; read-out: M2, PDSP raw data, mean
T8 construct: purchased NIMH Psychoactive Drug Screening Program (PDSP)
T8 sequence (P08172 1-466): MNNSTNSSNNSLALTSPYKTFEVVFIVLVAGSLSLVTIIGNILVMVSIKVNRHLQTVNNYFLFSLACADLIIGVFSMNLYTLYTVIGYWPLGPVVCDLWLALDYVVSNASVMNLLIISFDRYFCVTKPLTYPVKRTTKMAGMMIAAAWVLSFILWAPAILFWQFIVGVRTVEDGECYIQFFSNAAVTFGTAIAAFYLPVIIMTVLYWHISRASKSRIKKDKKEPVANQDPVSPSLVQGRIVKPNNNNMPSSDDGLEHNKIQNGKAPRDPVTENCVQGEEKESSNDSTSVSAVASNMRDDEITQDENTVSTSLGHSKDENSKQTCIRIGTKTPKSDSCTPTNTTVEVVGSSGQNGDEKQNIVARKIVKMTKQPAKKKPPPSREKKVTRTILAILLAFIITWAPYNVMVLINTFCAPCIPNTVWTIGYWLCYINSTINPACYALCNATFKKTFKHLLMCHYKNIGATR
Experimental: as §1, §2, §3

5-HT6 = target: T9, 5-HT6 (Homo sapiens, UniProt P50406); assay: PDSP primary binding 5-HT6; conditions: 1.5 h; primary binding, 10,000 nM; last figure of the line = mean of the 4 before it; read-out: 5-HT6, PDSP raw data, mean
T9 construct: purchased NIMH Psychoactive Drug Screening Program (PDSP)
T9 sequence (P50406 whole entry): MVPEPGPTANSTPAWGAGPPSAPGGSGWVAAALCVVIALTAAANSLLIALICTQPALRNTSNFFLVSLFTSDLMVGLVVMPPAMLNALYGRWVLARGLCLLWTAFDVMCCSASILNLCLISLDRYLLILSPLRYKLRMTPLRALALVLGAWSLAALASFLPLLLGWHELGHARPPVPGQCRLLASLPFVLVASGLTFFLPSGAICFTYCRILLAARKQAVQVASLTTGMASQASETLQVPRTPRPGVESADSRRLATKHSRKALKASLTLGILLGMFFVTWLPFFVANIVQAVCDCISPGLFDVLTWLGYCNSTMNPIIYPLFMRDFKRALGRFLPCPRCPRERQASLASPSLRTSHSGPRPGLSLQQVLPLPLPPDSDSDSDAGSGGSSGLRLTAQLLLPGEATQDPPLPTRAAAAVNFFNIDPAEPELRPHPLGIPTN
Experimental: as §1, §2, §3

AMPA = assay: PDSP primary binding AMPA; conditions: primary binding, 10,000 nM; last figure of the line = mean of the 4 before it
Experimental: as §1, §2, §3

Alpha4Beta4 = target: T10, Alpha4Beta4 (Rattus norvegicus, UniProt P09483+P12392); assay: PDSP primary binding Alpha4Beta4; conditions: primary binding, 10,000 nM; last figure of the line = mean of the 4 before it; read-out: Alpha4Beta4, PDSP raw data, mean
T10 construct: purchased NIMH Psychoactive Drug Screening Program (PDSP)
T10 sequence (P09483 31-630): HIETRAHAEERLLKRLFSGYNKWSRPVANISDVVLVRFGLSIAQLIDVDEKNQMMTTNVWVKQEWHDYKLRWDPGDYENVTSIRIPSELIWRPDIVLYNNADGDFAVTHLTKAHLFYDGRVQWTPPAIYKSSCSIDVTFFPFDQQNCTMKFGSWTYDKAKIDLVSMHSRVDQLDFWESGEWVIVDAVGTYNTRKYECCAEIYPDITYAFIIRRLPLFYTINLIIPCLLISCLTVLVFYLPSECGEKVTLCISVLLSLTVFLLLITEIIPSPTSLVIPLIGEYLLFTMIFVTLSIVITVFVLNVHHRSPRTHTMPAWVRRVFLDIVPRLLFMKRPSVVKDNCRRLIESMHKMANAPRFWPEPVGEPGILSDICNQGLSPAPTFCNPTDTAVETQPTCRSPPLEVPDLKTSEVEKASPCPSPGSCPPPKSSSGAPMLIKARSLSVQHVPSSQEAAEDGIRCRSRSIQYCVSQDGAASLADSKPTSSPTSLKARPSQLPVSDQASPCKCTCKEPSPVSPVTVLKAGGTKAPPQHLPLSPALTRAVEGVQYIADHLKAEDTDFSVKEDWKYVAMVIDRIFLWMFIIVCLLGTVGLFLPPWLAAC
T10 sequence (P12392 21-495): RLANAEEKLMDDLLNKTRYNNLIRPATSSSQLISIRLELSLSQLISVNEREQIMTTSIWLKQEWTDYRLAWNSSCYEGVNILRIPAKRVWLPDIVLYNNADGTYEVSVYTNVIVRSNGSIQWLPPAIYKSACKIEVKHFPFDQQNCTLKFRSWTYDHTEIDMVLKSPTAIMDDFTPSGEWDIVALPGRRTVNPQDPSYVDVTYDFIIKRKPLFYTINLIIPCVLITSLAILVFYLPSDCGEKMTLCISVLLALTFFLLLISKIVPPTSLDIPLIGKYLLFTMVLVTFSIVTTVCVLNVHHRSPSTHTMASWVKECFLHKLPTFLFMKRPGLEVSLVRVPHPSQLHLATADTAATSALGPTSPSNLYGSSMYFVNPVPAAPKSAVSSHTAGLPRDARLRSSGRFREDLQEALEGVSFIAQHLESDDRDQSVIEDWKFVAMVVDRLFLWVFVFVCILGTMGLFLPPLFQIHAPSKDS
Experimental: as §1, §2, §3

[2] = 1.5 h, primary binding, 10,000 nM, last figure of the line = mean of the 4 before it, some tables list PBR twice, read-out: PBR, PDSP raw data, mean
[3] = at 10,000 nM, N = 5, read-out: Binding Affinity at PBR % Inhibition (Primary)

T1 sequence (P12389 28-511): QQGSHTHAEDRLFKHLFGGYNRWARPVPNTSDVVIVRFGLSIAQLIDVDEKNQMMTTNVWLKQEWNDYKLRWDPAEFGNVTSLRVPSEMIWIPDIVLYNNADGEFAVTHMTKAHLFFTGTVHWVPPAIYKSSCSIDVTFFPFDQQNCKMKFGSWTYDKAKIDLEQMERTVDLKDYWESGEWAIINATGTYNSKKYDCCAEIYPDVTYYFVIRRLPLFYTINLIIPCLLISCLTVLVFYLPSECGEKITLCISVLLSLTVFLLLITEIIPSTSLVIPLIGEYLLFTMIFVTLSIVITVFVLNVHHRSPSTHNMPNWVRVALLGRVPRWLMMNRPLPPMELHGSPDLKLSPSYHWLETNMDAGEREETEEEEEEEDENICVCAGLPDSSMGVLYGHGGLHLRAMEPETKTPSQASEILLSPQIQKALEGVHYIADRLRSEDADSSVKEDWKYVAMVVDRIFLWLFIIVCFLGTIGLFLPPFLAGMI
T1 sequence (P12390 25-500): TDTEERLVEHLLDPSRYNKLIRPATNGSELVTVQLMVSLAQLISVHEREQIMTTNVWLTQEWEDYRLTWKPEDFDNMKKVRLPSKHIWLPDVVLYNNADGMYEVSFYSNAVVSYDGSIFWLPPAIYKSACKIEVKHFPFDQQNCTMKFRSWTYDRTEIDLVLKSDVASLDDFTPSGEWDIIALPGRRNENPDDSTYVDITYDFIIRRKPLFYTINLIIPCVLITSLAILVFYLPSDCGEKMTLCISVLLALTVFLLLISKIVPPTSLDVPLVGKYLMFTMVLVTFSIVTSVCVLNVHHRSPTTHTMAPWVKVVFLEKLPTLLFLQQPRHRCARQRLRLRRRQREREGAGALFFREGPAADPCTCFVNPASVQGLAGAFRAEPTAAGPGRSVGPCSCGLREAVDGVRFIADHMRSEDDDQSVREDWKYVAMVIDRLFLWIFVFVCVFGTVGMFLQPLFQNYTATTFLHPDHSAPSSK

Row | SMILES | inhibition at 10 µM (Alpha2Beta2) | inhibition at 10 µM (NTS1) | inhibition at 10 µM (5-HT1B) | HERG, PDSP raw data, mean (hERG channels) | inhibition at 10 µM (D2) | inhibition at 10 µM (H2) | inhibition at 10 µM (5-HT5A) | Ki [1] | inhibition at 10 µM [1, 2] | inhibition at 10 µM [1, 3] | inhibition at 10 µM (M2) | inhibition at 10 µM (5-HT6) | AMPA, PDSP raw data, mean (AMPA) | inhibition at 10 µM (Alpha4Beta4)
1 | C[C@H]1N=C(c2ccccc2F)c2cc(Cl)ccc2-n2cnc(-c3nc(C4CC4)no3)c21 [Compound 38, (R)-5-(8-Chloro-6-(2′-fluorophenyl)-4-methyl-4H-benzo[f]imidazo[1,5-a][1,4]diazepin-3-yl)-3-cyclopropyl-1,2,4-oxadiazole] | 1.44% | -13.2% | 8.75% | 9.37% | 21.8% | 6.81% | -2.84% | 617 ± 27.1 nM | 89.5% | 90 ± 2.13% | -9.65% | -6.37% | 21.42% | 8.62%
2 | CCc1noc(-c2ncn3c2CN=C(c2ccccc2F)c2cc(C4CC4)ccc2-3)n1 [Compound 44, 5-(8-Cyclopropyl-6-(2′-fluorophenyl)-4H-benzo[f]imidazo[1,5-a][1,4]diazepin-3-yl)-3-ethyl-1,2,4-oxadiazole] | -6.67% | -62.2% | 62.1% | 33.24% | 0.67% | 1.55% | 5.08% | – | 71% | – | -13.6% | 27.6% | -9.33% | 10.6%
3 | CCc1noc(-c2ncn3c2[C@@H](C)N=C(c2ccccc2F)c2cc(C4CC4)ccc2-3)n1 [Compound 46, (R)-5-(8-Cyclopropyl-6-(2′-fluorophenyl)-4-methyl-4H-benzo[f]imidazo[1,5-a][1,4]diazepin-3-yl)-3-ethyl-1,2,4-oxadiazole] | -2.72% | -29.8% | 15.1% | 4.34% | 4.73% | 6.98% | 23.6% | 627.3 ± 5.72 nM | 86.4% | 86.4 ± 6.35% | 5.73% | 71.5% | 0.81% | 14.2%

From publication PMC10303271, “Synthesis and Receptor Binding Studies of α5 GABAAR Selective Novel Imidazodiazepines Targeted for Psychiatric and Cognitive Disorders” (Molecules, 2023)
